Measured values taken from ChEMBL document CHEMBL1201862, “PubChem BioAssay data set” (2004).
Each block holds one molecule with its values, some of them ahead of it. Active and inactive are the calls of the source.

Experiments:
[1] = target: T1, Estrogen receptor (Homo sapiens, UniProt P03372); test: ERα coactivator recruitment enhancers – biochemical, TR-FRET, ERα LBD, dose response (AID 737)
T1 sequence (P03372 whole entry): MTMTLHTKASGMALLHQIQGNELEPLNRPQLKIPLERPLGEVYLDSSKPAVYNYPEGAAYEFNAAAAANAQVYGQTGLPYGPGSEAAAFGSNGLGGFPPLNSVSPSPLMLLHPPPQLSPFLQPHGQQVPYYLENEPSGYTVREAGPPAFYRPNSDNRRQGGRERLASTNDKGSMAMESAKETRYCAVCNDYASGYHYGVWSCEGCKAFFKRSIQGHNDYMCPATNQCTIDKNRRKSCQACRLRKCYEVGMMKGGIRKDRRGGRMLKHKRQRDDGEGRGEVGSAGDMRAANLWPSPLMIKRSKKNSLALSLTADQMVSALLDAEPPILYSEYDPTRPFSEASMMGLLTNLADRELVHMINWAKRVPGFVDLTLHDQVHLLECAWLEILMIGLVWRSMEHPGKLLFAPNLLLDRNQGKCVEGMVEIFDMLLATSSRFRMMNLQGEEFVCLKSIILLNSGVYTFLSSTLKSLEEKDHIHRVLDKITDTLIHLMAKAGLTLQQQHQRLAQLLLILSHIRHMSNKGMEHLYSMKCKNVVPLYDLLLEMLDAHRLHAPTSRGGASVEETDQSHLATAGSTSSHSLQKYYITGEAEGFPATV

[2] = target: Inward rectifier potassium channel 2 (Mus musculus, UniProt P35561); test: Manual electrophysiological patch clamp assay for SAR compounds that inhibit/block inward-rectifying potassium ion channel Kir2.1. [Related pubchem assays: 1843 (Summary assay for Kir2.1 inhibitor assays.), 1672 (Primary HTS of 305616 compounds where 2592 were identified as active.)]; assay type: functional
[3] = antiviral protection against BTV-induced cell death – arbovirus, BSR cells, confirmation (AID 1250); assay type: functional;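 note: protection from viral cytopathic effect measured as cell viability by ATP luminescence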
[4] = target: T2, NADPH oxidase 1 (Homo sapiens, UniProt Q9Y5S8); assay type: functional, cell-based;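 note: Cell-based assay with luminescence read-out, IC50 derived from inhibitor dose-response curves; intracellular ROS from endogenous NOX1 in intact HT29 colon cancer cells; potency of inhibitors that lower the ROS luminescence signal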
T2 sequence (Q9Y5S8 whole entry): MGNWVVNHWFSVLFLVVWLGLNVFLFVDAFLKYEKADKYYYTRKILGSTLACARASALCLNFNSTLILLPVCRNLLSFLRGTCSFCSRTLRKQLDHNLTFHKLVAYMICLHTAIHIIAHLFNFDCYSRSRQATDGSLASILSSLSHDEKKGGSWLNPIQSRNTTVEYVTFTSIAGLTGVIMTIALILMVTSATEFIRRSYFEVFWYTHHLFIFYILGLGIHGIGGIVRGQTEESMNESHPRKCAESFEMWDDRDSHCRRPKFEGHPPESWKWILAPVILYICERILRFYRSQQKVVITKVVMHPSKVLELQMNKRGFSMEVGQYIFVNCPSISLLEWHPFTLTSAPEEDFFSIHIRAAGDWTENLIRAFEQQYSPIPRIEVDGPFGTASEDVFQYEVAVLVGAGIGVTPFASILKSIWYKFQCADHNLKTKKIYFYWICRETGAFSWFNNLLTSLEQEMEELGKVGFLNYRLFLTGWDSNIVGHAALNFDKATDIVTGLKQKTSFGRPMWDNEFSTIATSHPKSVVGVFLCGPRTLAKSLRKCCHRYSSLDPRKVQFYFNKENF

[5] = viability of uninfected HEp-2 cells – cell-based, HTS, cytotoxicity control for RSV inhibitor project, dose response (AID 2410); assay type: functional; settings: human respiratory syncytial virus
[6] = cells

Sequence of Inward rectifier potassium channel 2 (P35561 whole entry): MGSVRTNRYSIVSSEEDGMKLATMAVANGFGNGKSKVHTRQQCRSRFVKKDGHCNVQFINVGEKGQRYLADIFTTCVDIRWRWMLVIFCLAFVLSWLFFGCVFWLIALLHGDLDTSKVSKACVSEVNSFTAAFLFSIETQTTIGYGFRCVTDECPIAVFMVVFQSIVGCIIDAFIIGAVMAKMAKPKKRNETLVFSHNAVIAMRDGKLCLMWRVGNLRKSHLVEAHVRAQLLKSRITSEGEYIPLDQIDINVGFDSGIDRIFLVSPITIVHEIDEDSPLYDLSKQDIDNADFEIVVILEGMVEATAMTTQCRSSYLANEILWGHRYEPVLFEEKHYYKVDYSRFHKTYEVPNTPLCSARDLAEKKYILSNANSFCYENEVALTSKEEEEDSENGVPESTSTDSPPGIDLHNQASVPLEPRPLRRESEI

EC50 [1]: 12.8 µM (active)
Compound: Cc1cccc(N2CCN(C(=O)c3cc4c(=O)n(C)c5ccccc5c4n3C)CC2)c1C

IC50 [2]: 1.88 µM (active)
Compound: COc1ccc(CNCc2ccc(OC)cc2)cc1

Compound: O=C(Nc1nc(-c2ccco2)cs1)c1ccccc1
IC50 [3]: 30.7 µM (active)

Compound: COc1ccc(-c2csc(Nc3ccc(C)cn3)n2)cc1OC
IC50 [3]: 35.9 µM (active)

IC50 [4]: > 17 µM (not active)
Compound: O=C1Nc2ccccc2/C1=N/NC(=S)Nc1ccccc1

IC50 [2]: 3.13 µM (active)
Compound: COc1ccc(CNCc2ccc(Cl)cc2Cl)cc1

Compound: CCOc1ccc(CNC(=O)c2cc3oc4ccccc4c3n2C)cc1
CC50 [5]: 39 µM (active) | IC50 [6]: 4.82 µM (active)
